# Assay results reported in US20120070493A1, “TARGETED MULTI-EPITOPE DOSAGE FORMS FOR INDUCTION OF AN IMMUNE RESPONSE TO ANTIGENS” (Selecta Biosciences, Inc., priority 2010, published 2012).
# Square brackets hold non-standard residues; d marks the D form. Ends that are not written are not given here.
# Tests used:
# [1] = system: CD4+/CD45RAlow/CD62Lhigh central memory T-cells (human PBMC); type: cell-based; settings: for memory T-cell recall response, influenza epitopes: 5 PBMC donors, FIG. 14; for response of individual peptides and of heterodimeric peptides lacking a cathepsin cleavage site, compared with the response to this peptide: 4 donors, the comparators were the weaker ones, not the labelled peptide
# [2] = system: MHC Class II (HLADP, HLADQ and HLADR alleles); settings: previously described peptide, Virology 326 (2004) 220-230; cited from earlier work
# [3] = system: CD4+/CD45RAlow/CD62Lhigh central memory T-cells; assay: dendritic cell/CD4 T-cell co-culture, multi-color intracellular cytokine analysis; type: cell-based, human; settings: for IFN-γ expression in peptide specific central memory T-cells / IL-4 expression in peptide specific central memory T-cells / TNF-α expression in peptide specific central memory T-cells: DC/CD4 co-culture with or without peptide, FIGS. 7 and 8; for co-expression of TNF-α and IFN-γ / co-expression of TNF-α and IL-4: multiple color flow cytometry, FIG. 9
# Experimental: Early central memory T-cells express multiple cytokines (IL-2, TNF-α, IFN-γ) when re-activated with specific peptides, whereas committed effector memory T-cells are thought to selectively express IL-4 for TH2 committed effector memory, and IFN-γ for TH1 committed effector memory. The status of peptide activated memory T-cells was tested using multi-color intracellular cytokine analysis of dendritic cell/CD4 cell co-cultures.
# Human peripheral blood monocytes were isolated using negative-selection magnetic beads (Dynal) and cultured in the presence of GM-CSF and IL-4 for 1 week in order to induce differentiation into dendritic cells. Allogeneic CD4 T cells were isolated using magnetic bead separation (Dynal) and co-cultured in the presence of DCs in the presence or absence of peptide. The protocol for stimulation and analysis from that point is identical to that for PBMC described above in Example 2.
# human PBMC = assay: interferon gamma Elispot, peptide-stimulated PBMC; type: cell-based; settings: 10 μM peptide; for memory T-cell response (IFN-γ Elispot spots, normalized to non-stimulated controls): 18 hours, 5 donors, FIG. 22; for number of donors showing a recall: out of 5 donors
# Experimental: The potency of single epitopes and chimeric epitopes have been evaluated by stimulating human PBMC with peptides in vitro for 18 hours and then analyzing the cells by Elispot. Briefly, whole blood was obtained from Research Blood Components (Cambridge). Blood was diluted in phosphate buffered saline (PBS) and then overlaid on top of Ficoll-paque premium (GE Healthcare) in a 50 mL tube. Tubes were spun for 30 minutes, and the transition phase PBMCs collected, diluted in PBS with 10% fetal calf serum (FCS) and spun for 10 minutes. Cells were resuspended in cell freezing media (Sigma) and immediately frozen at −80 C overnight. For long term storage, cells were transferred to liquid nitrogen. Cells were thawed as needed and resuspended in PBS 10% FCS, spun down and resuspended to 1×10^7 cells/mL in culture media (RPMI [cellgro]), supplemented with 10% heat inactivated fetal calf serum (Sigma) l-glutamine, penicillin and streptomycin).
# The Elispot assay was performed using an interferon gamma Elispot kit (Mabtech). Briefly the Elispot was performed by coating 96 well filter plates with an IFN-γ capture antibody, then blocked with complete culture media containing 10% FCS to prevent non-specific binding. PBMC (1×10^6 cells) were plated in the antibody pre-coated Elispot plates with or without 10 μM peptide. Positive control wells were stimulated with 10 μg/mL PHA. Elispot plates were incubated for 18 hours at 37° C. followed by coating with biotinylated anti-IFN-γ secondary antibody for 2 hours at room temperature. Elispot plates were then washed and IFN-γ spots developed using 3-amino-9-ethylcarbazole, dimethylformamide, and hydrogen peroxide in acetate buffer. IFN-γ positive Elispot counts were evaluated by an outside vendor (Zelnet) and the number of spots scored per 10 million cells.
substance,measurement,setting,value
NAELLVALENQHTIkvsvrLIFLARSALILR (NAELLVALENQHTIKVSVRLIFLARSALILR) [3120tkAAT],"memory T-cell recall response, influenza epitopes",[1]; 4 μM peptide,positive
DFHFEVFNFVPCSI [RSVG162-175],Affinity (HLA Class II type bound),[2],(HLADP)
ILMQYIKANSKFIGIQSIALSSLMVAQAIPLVGEL [TT830DT],IFN-γ expression in peptide specific central memory T-cells,[3],increased expression
same,IL-4 expression in peptide specific central memory T-cells,[3],not IL-4
same,TNF-α expression in peptide specific central memory T-cells,[3],increased expression
TLLYVLFEVkvsvrQSIALSSLMVAQ (TLLYVLFEV[dK][dV][dS][dV][dR]QSIALSSLMVAQ) [AdVkDTt],"response of individual peptides and of heterodimeric peptides lacking a cathepsin cleavage site, compared with the response to this peptide",[1]; 4 μM peptide,weaker response
ILMQYIKANSKFIGIQSIALSSLMVAQ [TT830DTt],co-expression of TNF-α and IFN-γ,[3],peptide induced co-expression
same,co-expression of TNF-α and IL-4,[3],not co-expression
VWLYNQIALQLKNHAkvsvrAGFYHILNNPKASL [VWLkAGF],"memory T-cell response (IFN-γ Elispot spots, normalized to non-stimulated controls)",human PBMC,highest memory T-cell response
same,number of donors showing a recall,human PBMC,5 donors
VSTYMLTNSELLSLINDkvsvrAGFYHILNNPKASL [VSTkAGF],"memory T-cell response (IFN-γ Elispot spots, normalized to non-stimulated controls)",human PBMC,highest memory T-cell response
same,number of donors showing a recall,human PBMC,5 donors
LIFLARSALILRkvsvrILSIYSTVASSLALAI [AATkABW2],"memory T-cell recall response, influenza epitopes",[1]; 4 μM peptide,positive
TLLYVLFEVkvsvr NNFTVSFWLRVPKVSASHLET (TLLYVLFEV[dK][dV][dS][dV][dR]NNFTVSFWLRVPKVSASHLET) [AdVkTT950],"response of individual peptides and of heterodimeric peptides lacking a cathepsin cleavage site, compared with the response to this peptide",[1]; 4 μM peptide,weaker response
CSQRSKFLLMDALKLkvsvrLIFLARSALILR [AAWkAAT],"memory T-cell recall response, influenza epitopes",[1]; 4 μM peptide,positive
ILMQYIKANSKFIGI QSIALSSLMVAQTLLYVLFEV (ILMQYIKANSKFIGIQSIALSSLMVAQTLLYVLFEV) [TT830DTAdV],number of donors showing a recall response,[1],4 donors
EKIVLLFAIVSLVKSDQICI [ABW9],"memory T-cell recall response, influenza epitopes",[1]; 4 μM peptide,not
ILSIYSTVASSLALAIkvsvrLIFLARSALILR [ABW2kAAT],"memory T-cell recall response, influenza epitopes",[1]; 4 μM peptide,positive
TLLYVLFEVPMGLPILMQYIKANSKFIGI [AdVpTT830],effect of insertion of a cathepsin cleavage site on activity of the AdV epitope,"[1]; human PBMC, 4 μM peptide",eliminated activity of the AdV epitope
ILMQYIKANSKFIGIPMGLPQSIALSSLMVAQ [TT830pmglpDTt],IFN-γ expression in peptide specific central memory T-cells,[3],increased expression
same,IL-4 expression in peptide specific central memory T-cells,[3],not IL-4
same,TNF-α expression in peptide specific central memory T-cells,[3],increased expression
same,co-expression of TNF-α and IFN-γ,[3],peptide induced co-expression
same,co-expression of TNF-α and IL-4,[3],not co-expression
same,"effect of inclusion of a cathepsin cleavage site on the response, compared with TT830DTt","[1]; human PBMC, 4 μM peptide",enhanced the response
same,recall activity compared with identical peptide without cleavage site (TT830DT),"[1]; human PBMC, 4 μM peptide",better than a peptide identical except without a cleavage site (TT830DT)
same,recall activity compared with individual components TT830 and DT alone,"[1]; human PBMC, 4 μM peptide",more active than its individual components (TT830 and DT) alone
same,"number of activated central memory T-cells (percent CD62L+/IFN-γ+ cells, normalized to non-stimulated)","[1]; human PBMC, 4 μM peptide, 20 donors, FIG. 5",highest response
same,number of donors positive for memory T-cells responding to peptide,"[1]; out of 20 donors, positive if greater than 0.08% responding central memory T-cells, FIG. 6",20/20
